Data published in the supplement of paper PMC10307832.

Assays:
Assay in all cases: relative viability (nuclei count vs DMSO), 5 days (fraction); higher = more cells survive
TGX 221 + Phenformin = compound: CC1=CN2C(=O)C=C(N=C2C(=C1)C(C)NC3=CC=CC=C3)N4CCOCC4 [TGX 221] + N=C(N)NC(=N)NCCc1ccccc1 [Phenformin] (partner 250 µM)
Summary of the method: (§1)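 Relative viability was taken as the ratio of nuclei in treated wells to nuclei in vehicle wells. Lung cancer cell lines in 1536-well plates received compounds by pin tool one day after seeding, either one drug alone or a fixed anchor-drug dose plus five library-drug doses (not always all listed) in √10 steps. Nuclei were counted on 4× images after 5 days of treatment, and values are medians of duplicate plates.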

[1] = compound: C1=CC=C(C(=C1)C2=CC=C(C=C2)C3=CSC4=C3C(=C(C(=O)N4)C#N)O)O + CC(=O)c1c(C)c2cnc(Nc3ccc(N4CCNCC4)cn3)nc2n(C2CCCC2)c1=O [Palbociclib] (partner 0.5 µM)
Summary of the method: as §1

[2] = compound: O=C(CCCCCCNC(=O)c1cnc(N(c2ccccc2)c2ccccc2)nc1)NO [Ricolinostat] + N=C(N)NC(=N)NCCc1ccccc1 [Phenformin] (partner 250 µM)
Summary of the method: as §1

TGX 221 + Olaparib = compound: CC1=CN2C(=O)C=C(N=C2C(=C1)C(C)NC3=CC=CC=C3)N4CCOCC4 [TGX 221] + O=C(c1cc(Cc2n[nH]c(=O)c3ccccc23)ccc1F)N1CCN(C(=O)C2CC2)CC1 [Olaparib] (partner 8 µM)
Summary of the method: as §1

Cell Line	relative viability (TGX 221 + Phenformin; first compound 0.08 µM)	relative viability (TGX 221 + Phenformin; first compound 0.253 µM)	relative viability (TGX 221 + Phenformin; first compound 0.8 µM)	relative viability (TGX 221 + Phenformin; first compound 2.53 µM)	relative viability (TGX 221 + Phenformin; first compound 8 µM)	relative viability ([1]; first compound 0.08 µM)	relative viability ([1]; first compound 0.253 µM)	relative viability ([1]; first compound 0.8 µM)	relative viability ([1]; first compound 2.53 µM)	relative viability ([1]; first compound 8 µM)	relative viability ([2]; first compound 0.08 µM)	relative viability ([2]; first compound 0.253 µM)	relative viability ([2]; first compound 0.8 µM)	relative viability ([2]; first compound 2.53 µM)	relative viability (TGX 221 + Olaparib; first compound 0.08 µM)	relative viability (TGX 221 + Olaparib; first compound 0.253 µM)	relative viability (TGX 221 + Olaparib; first compound 0.8 µM)	relative viability (TGX 221 + Olaparib; first compound 2.53 µM)	relative viability (TGX 221 + Olaparib; first compound 8 µM)
NCI-H1915	0.347	0.358	0.359	0.347	0.374	0.587	0.558	0.554	0.756	0.515	0.324	0.358	0.347	0.363	0.241	0.267	0.284	0.232	0.251
NCI-H1944	0.188	0.196	0.191	0.186	0.184	0.329	0.343	0.352	0.306	0.289	0.181	0.18	0.174	0.151		0.364	0.409	0.371	0.379
NCI-H1975	0.395	0.402	0.389	0.399	0.366	0.464	0.483	0.511	0.539	0.4	0.377	0.413	0.396	0.401	0.757	0.747	0.802	0.679	0.659
NCI-H1993	0.427	0.568	0.54	0.517	0.54	0.702	0.674	0.716	0.631	0.607		0.48	0.508	0.339	0.945	1.02	1.08	0.936	0.938
NCI-H2009	0.476	0.506	0.487	0.492	0.407	0.19	0.196	0.174	0.22	0.228	0.455	0.46	0.446	0.43	0.685	0.746	0.69	0.639	0.537
NCI-H2023	0.431	0.373	0.397	0.39	0.288	0.334	0.35	0.324	0.41	0.376		0.403	0.382	0.344	0.539	0.411	0.549	0.46	0.405
NCI-H2085	0.817	0.562	0.588	0.462	0.425	0.468	0.573	0.435	0.49	0.472		0.705	0.66	0.58	0.802	0.75	0.684	0.536	0.439
NCI-H2087	0.425	0.455	0.524	0.472	0.471	0.223	0.228	0.199	0.256	0.205		0.441	0.405	0.239	0.646	0.66	0.501	0.683	0.598
NCI-H2126	0.483	0.487	0.535	0.515	0.507	0.377	0.347	0.337	0.333	0.394		0.533	0.521	0.499	0.927	0.885	0.886	0.813	0.871
